Assay results published in ChEMBL document CHEMBL1201862, “PubChem BioAssay data set” (2004).
Calls of active or inactive are those of the source. Cut-off read from the data, not from the text of the source, for most assays here: actives have a measured EC50 and inactives only a lower limit.

How the values were obtained:
[1] = cytotoxicity in HEK-293T cells, dose response, cytotoxicity control for TCR NF-kB inhibitor project, luminescence, T-cell screen hits (AID 489026); assay type: functional, cell-based;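 note: cells exposed to compound about 14 hours before the viability readout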
Beta-galactosidase = Beta-galactosidase (Escherichia coli, UniProt Q8VNN2); experiment: PubChem AID 485352; assay type: functional
[2] = target: ATP-dependent molecular chaperone HSP82 (Candida albicans (strain WO-1) (Yeast), UniProt C4YTQ8); experiment: loss of DOC-induced GRE-beta-galactosidase reporter signal, dose response, Hsp90 inhibitor project, S. cerevisiae, luminescence (AID 2400); assay type: functional, cell-based;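 note: beta-galactosidase luminescence from glucocorticoid response element reporter as proxy for Hsp90 function; inhibitor potency where signal loss means Hsp90 inhibition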
[3] = target: Intestinal-type alkaline phosphatase (Homo sapiens, UniProt P09923); experiment: activation of human intestinal alkaline phosphatase – biochemical, dose response (AID 488873); assay type: functional
BJ [4] = experiment: cells; assay type: functional, cell-based; conditions: Homo sapiens
BJ [5] = experiment: cytotoxicity toward BJ-TERT fibroblasts, dose response, cell-based, RAS-independent, luminescence (AID 1933); assay type: functional; conditions: Homo sapiens
[6] = tested on: Streptococcus sp. 'group A'; experiment: growth inhibition of control SK(-) GAS strain, dose response, counter-screen for streptokinase expression inhibitor project, luminescence, kanamycin, BacTiterGlo, confirmation (AID 1900); assay type: functional, organism-based
[7] = target: Intestinal-type alkaline phosphatase (Mus musculus, UniProt P24822); experiment: mouse intestinal alkaline phosphatase activators, dose response, biochemical, luminescence, uHTS hits (AID 488783); assay type: functional
[8] = target: T1, Apoptotic protease-activating factor 1 (Homo sapiens, UniProt O14727); assay type: functional
T1 sequence (O14727 whole entry): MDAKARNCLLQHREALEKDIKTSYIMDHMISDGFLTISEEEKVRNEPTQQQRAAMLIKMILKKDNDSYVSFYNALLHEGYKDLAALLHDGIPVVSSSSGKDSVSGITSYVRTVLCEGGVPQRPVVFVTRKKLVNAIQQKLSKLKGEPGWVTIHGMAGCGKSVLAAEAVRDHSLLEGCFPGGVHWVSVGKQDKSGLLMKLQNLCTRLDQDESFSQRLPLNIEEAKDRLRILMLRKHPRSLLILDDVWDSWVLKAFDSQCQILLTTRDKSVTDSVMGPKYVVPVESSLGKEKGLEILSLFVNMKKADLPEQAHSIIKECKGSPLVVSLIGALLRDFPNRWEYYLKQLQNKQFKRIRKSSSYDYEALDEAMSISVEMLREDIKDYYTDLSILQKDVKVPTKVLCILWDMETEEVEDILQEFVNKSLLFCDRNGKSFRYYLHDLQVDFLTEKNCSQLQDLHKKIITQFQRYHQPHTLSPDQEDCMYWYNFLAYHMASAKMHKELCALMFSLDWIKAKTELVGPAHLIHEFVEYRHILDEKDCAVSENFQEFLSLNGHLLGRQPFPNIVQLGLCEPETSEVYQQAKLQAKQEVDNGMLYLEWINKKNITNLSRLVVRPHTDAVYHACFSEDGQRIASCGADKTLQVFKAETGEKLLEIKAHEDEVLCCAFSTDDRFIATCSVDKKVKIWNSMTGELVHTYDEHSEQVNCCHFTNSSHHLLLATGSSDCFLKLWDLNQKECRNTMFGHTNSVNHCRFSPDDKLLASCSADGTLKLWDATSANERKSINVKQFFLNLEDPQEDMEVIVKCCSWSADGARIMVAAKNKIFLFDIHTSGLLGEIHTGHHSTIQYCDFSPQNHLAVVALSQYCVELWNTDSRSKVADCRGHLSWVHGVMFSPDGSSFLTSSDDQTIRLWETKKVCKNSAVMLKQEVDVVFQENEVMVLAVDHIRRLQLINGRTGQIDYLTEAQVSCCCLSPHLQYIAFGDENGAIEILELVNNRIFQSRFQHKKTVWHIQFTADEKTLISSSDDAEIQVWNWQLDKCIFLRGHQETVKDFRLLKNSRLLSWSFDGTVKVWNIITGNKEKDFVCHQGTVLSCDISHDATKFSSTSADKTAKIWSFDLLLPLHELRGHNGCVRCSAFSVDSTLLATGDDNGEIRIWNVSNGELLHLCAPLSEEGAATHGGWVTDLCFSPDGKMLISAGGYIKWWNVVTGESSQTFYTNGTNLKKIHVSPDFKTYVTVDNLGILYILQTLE

BJ [9] = experiment: cytotoxicity toward BJ-TERT-LT-ST fibroblasts, dose response, cell-based, RAS-independent, luminescence (AID 1935); assay type: functional; conditions: Homo sapiens;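 note: BJ fibroblasts immortalized with TERT plus LT and ST oncogenes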
Streptococcus = experiment: Group A Streptococcus viability loss, dose response, counter-screen for streptokinase expression inhibitor project, luminescence, BacTiterGlo (AID 1915); assay type: functional, organism-based;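 note: potency for reduction of bacterial viability or growth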
[10] = target: Type-1 angiotensin II receptor (Homo sapiens, UniProt P30556); experiment: AT1 receptor antagonists, dose response, selectivity assay for APJ receptor antagonist project, cell-based, uHTS hits (AID 463214); assay type: functional;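 note: antagonist potency against angiotensin II stimulated AT1 response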
[11] = target: Beta-adrenergic receptor kinase 1 (Homo sapiens, UniProt P25098); experiment: aptamer displacement from bead-bound GRK2 – biochemical, cherry pick 1, bead flow cytometry, dose response (AID 504500)
BJ [12] = experiment: cytotoxicity toward Ras-transformed BJeLR fibroblasts, dose response, cell-based, alamar blue fluorescence, cherrypicked samples (AID 2631); assay type: functional; conditions: Homo sapiens;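 note: confirmatory dose-response assay in RAS-dependent BJ fibroblasts engineered with TERT, LT and ST, with cytotoxicity read by fluorescence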
[13] = target: Serine/threonine-protein phosphatase (Candida dubliniensis (strain CD36 / CBS 7987 / NCPF 3949 / NRRLY-17841) (Yeast), UniProt B9W6M3); experiment: calcineurin pathway inhibitors in yeast reporter, dose response, S. cerevisiae, CDRE-lacZ, luminescence, secondary (AID 2388); assay type: functional, cell-based;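 note: yeast reporter cells carrying a calcineurin-responsive lacZ construct stimulated with calcium chloride; luminescent beta-galactosidase reporter signal in whole cells rather than isolated phosphatase activity; potency for inhibition where a drop in reporter signal means calcineurin blockade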
[14] = cytotoxicity toward DRD oncogenic fibroblasts, dose response, cell-based, non-viral oncogenic, luminescence (AID 1934); assay type: functional; conditions: Homo sapiens
Streptokinase A = target: T2, Streptokinase A (Streptococcus pyogenes serotype M1, UniProt P10520); experiment: S. pyogenes streptokinase expression inhibitors, potency, dose response, plasminogen activation absorbance, OD405 (AID 1914); assay type: functional, Streptococcus pyogenes M1 GAS;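 note: secreted streptokinase activity via plasminogen activation per viability signal from cell pellet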
T2 sequence (P10520 whole entry): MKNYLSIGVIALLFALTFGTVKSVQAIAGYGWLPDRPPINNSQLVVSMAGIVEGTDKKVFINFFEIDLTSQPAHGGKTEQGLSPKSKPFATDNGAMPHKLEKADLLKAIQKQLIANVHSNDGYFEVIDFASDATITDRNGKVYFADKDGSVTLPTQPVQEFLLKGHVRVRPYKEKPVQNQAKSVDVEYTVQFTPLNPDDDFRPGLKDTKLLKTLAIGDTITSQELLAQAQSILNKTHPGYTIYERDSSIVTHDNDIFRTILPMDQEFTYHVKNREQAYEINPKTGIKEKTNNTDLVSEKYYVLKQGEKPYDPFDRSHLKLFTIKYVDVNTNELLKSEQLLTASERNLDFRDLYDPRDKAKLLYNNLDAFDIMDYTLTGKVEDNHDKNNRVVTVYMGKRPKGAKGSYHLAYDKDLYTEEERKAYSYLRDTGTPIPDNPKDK

[15] = NIH-3T3 fibroblast cytotoxicity, dose response, cytotoxicity control, cell-based, fluorescence, Alamar Blue, secondary assay (AID 2327); assay type: functional;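 note: NIH-3T3 mouse fibroblasts cultured with fluconazole at 8 µg/mL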
INS1 = experiment: beta cell apoptosis inhibitors, cytokine rescue, dose response, luminescence, retest (AID 449756); assay type: functional, cell-based; conditions: Rattus norvegicus;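 note: cell death triggered by IL-1 beta plus TNF-alpha plus IFN-gamma mixture; protective hits raise ATP signal compared with cytokine alone wells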
[16] = target: T3, Alkaline phosphatase, tissue-nonspecific isozyme (Homo sapiens, UniProt P05186); experiment: TNAP enzyme activators, dose response, selectivity assay for mouse IAP activator project, biochemical, TNAP isozyme, mouse IAP uHTS hits (AID 488880); assay type: functional
T3 sequence (P05186 whole entry): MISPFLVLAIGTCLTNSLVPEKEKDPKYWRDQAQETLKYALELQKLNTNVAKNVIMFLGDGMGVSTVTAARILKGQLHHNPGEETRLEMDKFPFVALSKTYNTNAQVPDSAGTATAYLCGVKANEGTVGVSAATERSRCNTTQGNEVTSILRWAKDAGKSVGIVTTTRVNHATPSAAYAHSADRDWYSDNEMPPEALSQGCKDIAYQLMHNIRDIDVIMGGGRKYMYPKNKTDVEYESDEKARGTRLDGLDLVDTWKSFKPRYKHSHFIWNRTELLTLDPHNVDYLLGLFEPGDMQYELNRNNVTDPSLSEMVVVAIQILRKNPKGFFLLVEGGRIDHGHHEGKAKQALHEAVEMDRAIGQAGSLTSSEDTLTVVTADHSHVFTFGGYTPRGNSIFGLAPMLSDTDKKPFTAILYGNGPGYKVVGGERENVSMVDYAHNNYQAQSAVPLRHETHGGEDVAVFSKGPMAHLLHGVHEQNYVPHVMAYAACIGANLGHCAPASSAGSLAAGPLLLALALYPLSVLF

[17] = C. albicans growth with fluconazole, confirmation, fluorescence, retest (AID 2467); assay type: functional, cell-based
[18] = inhibitors of firefly luciferase expression or activity, dose response, H4 neuroglioma cells, luminescence (AID 1990); assay type: functional, cell-based
[19] = inhibitors of SNCA 5'UTR-driven reporter translation, confirmation, H4 neuroglioma cells, luminescence (AID 1988); assay type: functional, cell-based
HEK293 = experiment: inhibitors of LMP1-driven NF-kB reporter, dose response, cell-based, HEK293, luciferase, cherry-pick (AID 588343); assay type: functional; conditions: Homo sapiens
[20] = Luminescence Cell-Based Dose Response HTS to Identify Inhibitors of 5'UTR Stem-Loop Driven Prion Protein mRNA Translation in H4 Neuroglioblastoma Cells. [Related pubchem assays: 1827 (Project Summary), 1813 (Primary HTS)]; assay type: functional
[21] = target: Potassium voltage-gated channel subfamily KQT member 2 (Rattus norvegicus, UniProt O88943); experiment: Mode of action assay-Dose response assay for compounds that activate KCNQ2 potassium channels on automated patch clamp. [Related pubchem assays (depositor defined):AID2239, AID2258, AID2287, AID493113]; assay type: functional
[22] = target: Potassium voltage-gated channel subfamily KQT member 2/member 3 (Rattus norvegicus, UniProt O88943+O88944); experiment: Mode of action assay-Dose response assay for KCNQ2 activators in the KCNQ2/KCNQ3 co-expressing cells on automated patch clamp. [Related pubchem assays (depositor defined):AID2239, AID2258, AID2287]; assay type: functional
[23] = target: T4, Potassium voltage-gated channel subfamily KQT member 4 (Homo sapiens, UniProt P56696); experiment: human KCNQ4 channel current potentiation, dose response, selectivity assay for KCNQ2 activator project, automated patch clamp, CHO cells (AID 493043); assay type: functional, cell-based
[24] = target: T4, Potassium voltage-gated channel subfamily KQT member 4; experiment: KCNQ4 channel modulation, potentiation or inhibition, dose response, selectivity assay for KCNQ2 activator project, thallium flux, KCNQ4-expressing cells (AID 504416); assay type: functional, cell-based
[25] = target: Beta-2 adrenergic receptor (Homo sapiens, UniProt P07550); experiment: beta2AR agonists driving receptor internalization, dose response, cell-based, FAP fluorogen, flow cytometry, cherry pick 1 (AID 588763); assay type: functional
H9c2 = experiment: cells; assay type: functional, cell-based; conditions: Rattus norvegicus, H9c2, Myocardium;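 note: confirmatory concentration-response retest of ultra-high-throughput screening hits for modulation of myocardial damage; cell death induced by hydrogen peroxide oxidative stress; compound pretreatment for 60 min then peroxide exposure for 2 h; potency is for protecting the cells against peroxide damage rather than for killing them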

T4 sequence (P56696 whole entry): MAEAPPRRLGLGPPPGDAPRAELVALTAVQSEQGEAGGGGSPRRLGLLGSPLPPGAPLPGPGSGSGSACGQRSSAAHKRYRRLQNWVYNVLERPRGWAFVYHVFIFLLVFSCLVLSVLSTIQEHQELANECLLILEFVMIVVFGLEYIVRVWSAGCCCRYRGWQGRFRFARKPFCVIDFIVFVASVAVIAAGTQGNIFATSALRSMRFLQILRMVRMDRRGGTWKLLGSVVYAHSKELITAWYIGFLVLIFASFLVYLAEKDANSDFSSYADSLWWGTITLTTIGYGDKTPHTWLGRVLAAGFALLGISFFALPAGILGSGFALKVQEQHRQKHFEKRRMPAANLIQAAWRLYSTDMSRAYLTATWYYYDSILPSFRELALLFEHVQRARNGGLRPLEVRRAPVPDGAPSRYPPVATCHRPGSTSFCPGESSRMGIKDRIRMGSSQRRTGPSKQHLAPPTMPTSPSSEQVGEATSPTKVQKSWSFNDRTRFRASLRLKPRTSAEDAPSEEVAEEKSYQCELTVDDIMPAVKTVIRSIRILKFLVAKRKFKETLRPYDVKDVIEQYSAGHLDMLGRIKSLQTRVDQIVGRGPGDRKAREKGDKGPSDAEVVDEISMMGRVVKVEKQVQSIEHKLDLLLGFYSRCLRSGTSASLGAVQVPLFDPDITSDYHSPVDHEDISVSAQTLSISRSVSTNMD
Sequence of Serine/threonine-protein phosphatase (B9W6M3 whole entry): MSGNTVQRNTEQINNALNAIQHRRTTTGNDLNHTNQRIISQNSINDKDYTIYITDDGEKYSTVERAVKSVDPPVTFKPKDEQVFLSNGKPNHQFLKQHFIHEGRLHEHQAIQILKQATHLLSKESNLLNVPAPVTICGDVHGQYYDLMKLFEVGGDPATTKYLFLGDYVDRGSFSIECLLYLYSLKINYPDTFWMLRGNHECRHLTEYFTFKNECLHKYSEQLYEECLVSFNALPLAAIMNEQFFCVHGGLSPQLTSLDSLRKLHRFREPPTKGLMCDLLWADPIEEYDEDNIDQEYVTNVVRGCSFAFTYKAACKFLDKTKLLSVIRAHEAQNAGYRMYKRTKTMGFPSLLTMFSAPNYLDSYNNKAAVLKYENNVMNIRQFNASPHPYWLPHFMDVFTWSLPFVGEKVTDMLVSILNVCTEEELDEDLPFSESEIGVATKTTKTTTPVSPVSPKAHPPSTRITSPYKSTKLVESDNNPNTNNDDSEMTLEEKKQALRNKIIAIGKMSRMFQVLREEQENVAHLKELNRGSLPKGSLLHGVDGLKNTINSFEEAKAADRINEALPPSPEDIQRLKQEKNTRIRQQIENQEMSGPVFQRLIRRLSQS
Sequence of Beta-2 adrenergic receptor (P07550 whole entry): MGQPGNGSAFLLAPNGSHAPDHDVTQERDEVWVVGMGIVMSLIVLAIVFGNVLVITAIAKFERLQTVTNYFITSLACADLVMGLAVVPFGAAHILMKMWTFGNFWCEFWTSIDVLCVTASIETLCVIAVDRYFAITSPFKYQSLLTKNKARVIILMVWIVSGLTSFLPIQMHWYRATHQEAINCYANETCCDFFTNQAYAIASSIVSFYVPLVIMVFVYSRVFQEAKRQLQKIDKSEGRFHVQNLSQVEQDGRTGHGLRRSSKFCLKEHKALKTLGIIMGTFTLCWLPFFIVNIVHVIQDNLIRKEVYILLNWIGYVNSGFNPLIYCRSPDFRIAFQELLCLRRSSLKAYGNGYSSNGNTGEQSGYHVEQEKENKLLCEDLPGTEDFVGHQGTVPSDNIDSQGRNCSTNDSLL
Sequence of Type-1 angiotensin II receptor (P30556 whole entry): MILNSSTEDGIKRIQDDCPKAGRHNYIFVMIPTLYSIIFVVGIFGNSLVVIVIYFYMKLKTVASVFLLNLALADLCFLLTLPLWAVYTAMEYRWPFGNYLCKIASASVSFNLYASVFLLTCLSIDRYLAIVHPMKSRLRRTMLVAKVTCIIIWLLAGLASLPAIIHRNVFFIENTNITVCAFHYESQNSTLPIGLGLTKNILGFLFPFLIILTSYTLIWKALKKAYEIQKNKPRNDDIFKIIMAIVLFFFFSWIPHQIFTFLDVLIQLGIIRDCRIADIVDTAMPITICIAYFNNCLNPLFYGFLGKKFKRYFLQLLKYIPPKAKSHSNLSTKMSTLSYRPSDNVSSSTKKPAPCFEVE
Sequence of Intestinal-type alkaline phosphatase (Homo sapiens, UniProt P09923) (P09923 whole entry): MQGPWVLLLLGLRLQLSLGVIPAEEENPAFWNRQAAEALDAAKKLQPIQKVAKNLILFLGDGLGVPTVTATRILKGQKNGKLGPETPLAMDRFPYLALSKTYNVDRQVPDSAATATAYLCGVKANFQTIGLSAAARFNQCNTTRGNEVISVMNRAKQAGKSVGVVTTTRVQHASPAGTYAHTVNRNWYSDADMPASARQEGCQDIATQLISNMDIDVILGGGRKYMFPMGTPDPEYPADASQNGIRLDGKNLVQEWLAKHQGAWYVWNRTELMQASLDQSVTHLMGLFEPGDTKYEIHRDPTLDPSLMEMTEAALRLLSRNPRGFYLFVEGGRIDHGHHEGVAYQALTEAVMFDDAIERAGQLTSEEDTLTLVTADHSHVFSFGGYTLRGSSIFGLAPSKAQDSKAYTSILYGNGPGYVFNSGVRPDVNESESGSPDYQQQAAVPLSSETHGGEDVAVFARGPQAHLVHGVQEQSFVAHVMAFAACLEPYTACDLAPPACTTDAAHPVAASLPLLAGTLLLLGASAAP
Sequence of Beta-galactosidase (Q8VNN2 whole entry): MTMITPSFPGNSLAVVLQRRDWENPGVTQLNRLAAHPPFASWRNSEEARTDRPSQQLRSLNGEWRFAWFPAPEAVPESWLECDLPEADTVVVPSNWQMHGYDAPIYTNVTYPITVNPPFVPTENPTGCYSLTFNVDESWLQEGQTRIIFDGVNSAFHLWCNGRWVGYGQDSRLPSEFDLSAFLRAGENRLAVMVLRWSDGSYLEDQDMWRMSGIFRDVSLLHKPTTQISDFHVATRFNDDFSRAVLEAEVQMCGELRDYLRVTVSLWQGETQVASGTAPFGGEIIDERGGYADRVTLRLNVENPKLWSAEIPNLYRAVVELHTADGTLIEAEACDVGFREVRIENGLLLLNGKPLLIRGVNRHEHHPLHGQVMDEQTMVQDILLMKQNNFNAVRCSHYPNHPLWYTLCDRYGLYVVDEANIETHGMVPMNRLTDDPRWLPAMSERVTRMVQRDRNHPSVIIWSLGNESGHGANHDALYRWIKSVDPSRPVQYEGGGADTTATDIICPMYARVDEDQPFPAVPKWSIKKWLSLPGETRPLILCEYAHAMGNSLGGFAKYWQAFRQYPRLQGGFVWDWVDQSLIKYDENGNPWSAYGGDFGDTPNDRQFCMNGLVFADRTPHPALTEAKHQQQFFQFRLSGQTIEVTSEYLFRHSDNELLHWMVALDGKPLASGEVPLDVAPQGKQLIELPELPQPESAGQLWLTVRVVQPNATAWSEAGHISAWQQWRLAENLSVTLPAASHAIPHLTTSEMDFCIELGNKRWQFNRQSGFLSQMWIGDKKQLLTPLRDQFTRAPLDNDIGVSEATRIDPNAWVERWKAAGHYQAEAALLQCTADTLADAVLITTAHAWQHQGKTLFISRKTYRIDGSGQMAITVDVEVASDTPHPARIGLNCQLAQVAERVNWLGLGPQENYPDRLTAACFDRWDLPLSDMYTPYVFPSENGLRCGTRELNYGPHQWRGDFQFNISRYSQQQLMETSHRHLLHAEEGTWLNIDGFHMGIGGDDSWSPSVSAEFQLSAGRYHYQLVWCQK
Sequence of ATP-dependent molecular chaperone HSP82 (C4YTQ8 whole entry): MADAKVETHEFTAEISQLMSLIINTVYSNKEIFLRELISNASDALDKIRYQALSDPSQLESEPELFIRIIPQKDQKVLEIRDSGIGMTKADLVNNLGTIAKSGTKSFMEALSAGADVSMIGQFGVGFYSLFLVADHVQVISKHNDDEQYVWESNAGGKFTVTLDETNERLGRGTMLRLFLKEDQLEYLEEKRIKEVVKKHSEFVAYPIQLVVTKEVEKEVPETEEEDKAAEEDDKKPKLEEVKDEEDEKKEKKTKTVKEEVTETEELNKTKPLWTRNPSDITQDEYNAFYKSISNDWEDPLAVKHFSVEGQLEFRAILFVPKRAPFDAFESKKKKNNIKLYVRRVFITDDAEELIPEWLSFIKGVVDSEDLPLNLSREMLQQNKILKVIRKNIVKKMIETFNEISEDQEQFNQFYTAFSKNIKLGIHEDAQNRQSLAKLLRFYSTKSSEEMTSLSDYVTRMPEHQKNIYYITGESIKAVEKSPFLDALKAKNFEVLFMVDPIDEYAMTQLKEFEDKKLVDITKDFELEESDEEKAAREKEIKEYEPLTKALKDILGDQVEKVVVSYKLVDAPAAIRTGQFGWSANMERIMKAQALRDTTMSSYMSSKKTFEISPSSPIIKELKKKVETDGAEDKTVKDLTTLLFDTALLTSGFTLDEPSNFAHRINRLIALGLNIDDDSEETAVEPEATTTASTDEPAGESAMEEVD
Sequence of Beta-adrenergic receptor kinase 1 (P25098 whole entry): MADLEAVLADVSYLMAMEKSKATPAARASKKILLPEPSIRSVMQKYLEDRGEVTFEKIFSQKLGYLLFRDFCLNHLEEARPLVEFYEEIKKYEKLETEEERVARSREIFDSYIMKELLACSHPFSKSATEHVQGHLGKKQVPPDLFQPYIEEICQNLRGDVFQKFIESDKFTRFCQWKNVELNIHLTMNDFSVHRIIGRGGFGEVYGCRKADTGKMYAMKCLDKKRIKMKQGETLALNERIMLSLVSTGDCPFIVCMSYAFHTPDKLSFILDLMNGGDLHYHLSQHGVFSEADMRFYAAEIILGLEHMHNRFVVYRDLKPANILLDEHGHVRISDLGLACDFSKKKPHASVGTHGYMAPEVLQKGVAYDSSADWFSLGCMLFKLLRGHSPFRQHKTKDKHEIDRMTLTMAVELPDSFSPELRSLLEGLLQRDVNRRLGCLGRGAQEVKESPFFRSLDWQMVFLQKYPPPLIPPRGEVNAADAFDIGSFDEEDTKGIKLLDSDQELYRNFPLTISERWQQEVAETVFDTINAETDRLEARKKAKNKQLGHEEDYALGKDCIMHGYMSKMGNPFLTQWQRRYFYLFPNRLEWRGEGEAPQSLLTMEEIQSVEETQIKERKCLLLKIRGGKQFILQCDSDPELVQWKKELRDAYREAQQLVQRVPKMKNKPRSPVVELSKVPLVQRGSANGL

Which IC50 [1] does the source give for CCN1/C(=C/c2ccc3cc(C)ccc3[n+]2CC)Sc2ccc3sccc3c21 here?
The IC50 was > 80 µM (inactive).

And the EC50 (Beta-galactosidase)?
Its EC50 is > 40 µM (inactive).

What about the EC50 [2] of the same molecule?
The EC50 was 32 µM (active).

What about the EC50 [3] of the same molecule?
The EC50 was 61.8 µM (active).

And the EC50 (BJ [4])?
Its EC50 is 0.966 µM (inconclusive).

What about the EC50 (BJ [5]) of the same molecule?
The EC50 was 1.17 µM (inconclusive).

What about the EC50 [6] of the same molecule?
The EC50 was 3.29 µM (active).

And the EC50 [7]?
The EC50 was 35.5 µM (active).

What about the IC50 [8] of the same molecule?
The IC50 was > 100 µM (inactive).

And the EC50 (BJ [9])?
Its EC50 is 1.23 µM (inconclusive).

What about the EC50 (Streptococcus) of the same molecule?
Its EC50 is 4.44 µM (active).

And the IC50 [10]?
Its IC50 is > 40 µM (not active).

What about the EC50 [11] of the same molecule?
The EC50 was 0.12 µM (active).

And the EC50 (BJ [12])?
The EC50 was 0.37 µM (inconclusive).

What about the EC50 [13] of the same molecule?
Its EC50 is > 180 µM (inactive).

And the EC50 [14]?
Its EC50 is 1.45 µM (inconclusive).

What about the EC50 (Streptokinase A) of the same molecule?
The EC50 was > 150 µM (not active).

And the EC50 [15]?
The EC50 was 21.1 µM (active).

And the AC50 (INS1)?
Its AC50 is < 0.195 µM (active).

And the EC50 [16]?
Its EC50 is 60.6 µM (active).

What about the EC50 [17] of the same molecule?
The EC50 was 0.046 µM (active).

Which results are given for COc1ccc(Nc2oc(COc3ccccc3OC)nc2C#N)cc1?
EC50 [18]: 7.69 µM (active); EC50 [19]: 6.17 µM (active); AC50 (HEK293): 6.17 µM (active); EC50 [20]: 11 µM (active)

For Cc1cc(C)c(NC(=O)CC(C)(C)C)c(Cl)c1, which EC50 [21] is on record?
Its EC50 is 0.867 µM (active).

What about the EC50 [22] of the same molecule?
Its EC50 is 0.625 µM (active).

And the EC50 [23]?
Its EC50 is 15.3 µM (active).

What about the EC50 [24] of the same molecule?
The EC50 was 8.78 µM (active).

With CC(=O)Nc1ccc(S(=O)(=O)N(Cc2ccco2)Cc2cc3ccccc3nc2O)cc1 as the molecule, how does the EC50 [25] read?
Its EC50 is 0.00464 µM (active).

What about the IC50 (H9c2) of the same molecule?
Its IC50 is > 79 µM (inactive).
